What is called pIC50 is the IC50 on a negative log10 scale, so that one unit is a factor of ten.

The subject of series [1] is mouse hair follicle epithelial cells. Description: Cell growth-promoting effect on cultured mouse hair follicle epithelial cells (MTT). The format is cell-based. The procedure: Hair follicle epithelial cells were separated and cultured according to a modification of the method of Tanigaki, et al. [Archives of Dermatological Research, 284, 290–296 (1992)].
The skin on the back of a 4-days-old C3H mouse (Charles River Japan, Inc.) was cut off and treated with MEM (Eagle's Minimum Essential Medium) containing 500 units/ml Dispase (Godo Shusei Co., Ltd.) and 5% fetal calf serum (FCS) at 4° C. for 16 hours.
Then, the epidermis was stripped from the skin section, and the obtained dermis layer was treated with DMEM (Dulbecco's modified Eagle Medium) containing 0.25% Collagenase N-2 (Nitta Gelatin Co., Ltd.) and 10% FCS at 37° C. for one hour to obtain a dermis suspension. The dermis suspension was filtered through a 212-μm nylon mesh (Nippon Rikagaku Kikai Co., Ltd.) and the filtrate was centrifuged at 1000 rpm for 5 minutes to obtain pellets containing hair follicle tissue. To the pellets was added calcium/magnesium-free PBS (Dulbecco's Phosphate-Buffered Saline) and the pellets were suspended therein using a pipette. The resulting suspension was allowed to stand for 15 minutes to precipitate hair tissue. The same procedure as above (addition of calcium/magnesium-free PBS, suspending by use of a pipette, and precipitation by allowing suspension to stand for 15 minutes) was repeated three times using the obtained hair tissue.
Then, the hair tissue was treated with a solution containing 0.1% ethylenediaminetetraacetic acid (EDTA) and 0.25% trypsin (Gibco) at 37° C. for 5 minutes. To the resulting mixture was added DMEM containing 10% FCS to prepare a hair tissue cell suspension having a density of 3×10^5 cells/ml. The hair tissue cell suspension was put into wells of a 24-well collagen-coated plate (Iwaki Glass Co., Ltd.) in an amount of 1 ml/well, followed by culturing in 5% CO2 at 37° C. for 24 hours.
After the culturing, the medium was replaced by a medium prepared by adding to MCDB153 medium (Kyokuto Pharmaceutical Ind. Co., Ltd.) DMSO containing 5 mg/l bovine insulin (Sigma Chemical Co., Ltd.); 5 μg/l mouse epidermal growth factor (EGF) (Takara Shuzo Co., Ltd.); 40 mg/l bovine pituitary extract (Kyokuto Pharmaceutical Ind. Co., Ltd.); 10 mg/l human transferrin (Sigma Chemical Co., Ltd.); 0.4 mg/l hydrocortisone (Sigma Chemical Co., Ltd.); 0.63 μg/l progesterone (Collaborative Research Co.); 14 mg/l O-phosphoethanolamine (Sigma Chemical Co., Ltd.); 6.1 mg/l ethanolamine (Sigma Chemical Co., Ltd.); 50 U/ml penicillin (Wako Pure Chemical Industries, Ltd.); 50 μg/ml streptomycin (Wako Pure Chemical Industries, Ltd.); monooleoyl lysophosphatidic acid, dioleoyl phosphatidic acid (Sigma Chemical Co., Ltd.), didecanoyl phosphatidic acid (Sigma Chemical Co., Ltd.), dimyristoyl phosphatidic acid (Funakoshi Co., Ltd.), dipalmitoyl phosphatidic acid (Wako Pure Chemical Industries, Ltd.), dilauroyl phosphatidic acid (Funakoshi Co., Ltd.) or egg yolk-derived phosphatidic acid (Sigma Chemical Co., Ltd.); and/or proanthocyanidin, a protein kinase C-specific inhibitor or tocopherol (added in an amount of 1/100 by volume), followed by further culturing in 5% CO2 at 37° C. for 5 days. During the culturing, the medium was replaced with a fresh one every other day.
As a control, the cells were cultured in the same medium as above except that DMSO alone was added in an amount of 1/100 by volume in place of DMSO containing lysophosphatidic acid or phosphatidic acid, and/or proanthocyanidin, a protein kinase C-specific inhibitor or tocopherol.
The degree of cell growth was measured according to the method using MTT [3-(4,5-dimethylthiazol-2-yl)-2,5-diphenyl tetrazolium bromide] [Experimental Medicine (extra number), Bio Manual UP Series, Experimental Method of Cell Culture for Molecular Biological Studies, p. 89–92, Yodosha (1995)].
To each well of the 24-well microplate (2 cm^2/well) was added a PBS solution of MTT (5 mg/ml) in an amount of 1/10 by volume based on 1 ml of the culture. […]

The next series has as its system protein kinase C (PKC). Briefly: Measurement of PKC-inhibiting activity (PKC-IC50). The following applies: for pIC50: read-out: PKC-IC50, crude enzyme partially purified from rat brain. How it is done:
(1) Method for Measuring PKC-Inhibiting Activity
Measurement of PKC-inhibiting activity can be carried out in a manner similar to the method of Kikkawa, et al. [Journal of Biological Chemistry, 257, 13341 (1982)].
To 250 μl of an aqueous solution comprising 2.5 μmol of magnesium acetate, 50 μg of histone Type IIIS (Sigma Chemical Co., Ltd.), 20 μg of phosphatidylserine, 0.8 μg. of diolein, 25 nmol of calcium chloride, 5 μg of a crude enzyme (partially purified from rat brain by the method of Kikkawa, et al.) and 5 μmol of Tris-HCl buffer (pH 7.5) is added the above aqueous solution containing a test compound (10 μl), followed by incubation at 30° C. for 3 minutes. After the incubation, 1.25 nmol of [γ-^32P]ATP (5–10×10^3 cpm/nmol) is added thereto, followed by phosphorylation reaction at 30° C. for 3 minutes. The reaction is terminated by addition of 25% trichloroacetic acid and the reaction mixture is filtered through a cellulose acetate membrane (pore size: 0.45 μm, Toyo Filter Co., Ltd.) After the membrane is washed four times with 5% trichloroacetic acid, the radioactivity remaining on the membrane is measured as a test compound value. Separately, the above procedure is carried out in the same manner without addition of the test compound and the radioactivity is measured as a control value.
The molar concentration of the test compound giving a test compound value which is 50% of the control value is regarded as the 50% PKC inhibition constant (PKC-IC50).

Another series deals with protein kinase A (PKA) (Bos taurus, UniProt P00517). Description: Measurement of PKA-inhibiting activity (PKA-IC50). The series is classed as biochemical. The note with it: crude enzyme partially purified from calf heart. An excerpt:
(2) Method for Measuring PKA-Inhibiting Activity

[2] abbreviates: Table 2 (1), 3 μmol/l alone, 5 days culture.
The mark [3] stands for this setting: Table 2 (1), 30 μmol/l alone, 5 days culture.
[4] abbreviates: Table 2 (2), 10 μmol/l alone, 5 days culture.

pIC50: −log10 of the molar value. Read-outs that look alike come from different tables or passages of the source. Bounds are passed on as bounds.

For the compound `CCCCCCCCCCCCCCCC(=O)OC[C@H](COP(=O)(O)O)OC(=O)CCCCCCCCCCCCCCC` [Dipalmitoyl phosphatidic acid, dipalmitoyl phosphatidic acid], the “Relative cell growth rate based on the control as 100” value (“Relative cell growth rate based” for short) in series [1] (Table 2 (2), 20 μmol/l alone) was 314.

As to `CCCCCCCCCC(=O)OCC(COP(=O)(O)O)OC(=O)CCCCCCCCC` (stereo not drawn) [Didecanoyl phosphatidic acid, didecanoyl phosphatidic acid], in series [1] (Table 2 (2), 1 μmol/l alone), the “Relative cell growth rate based” value was 168. Compound `CCCCCCCCCCCCCCCC(=O)OC(CC(=O)[O-])C[N+](C)(C)C` (racemic) [Palmitoyl-DL-carnitine] registered a PKA-IC50/PKC-IC50 with protein kinase C (PKC) above 4.3. In addition, the pIC50 at protein kinase C (PKC) is 3.64; on protein kinase A (PKA), below 3.00. For Calphostin C, the “Relative cell growth rate based” value in series [1] (setting [2]) came out at 180; in series [1] (Table 2 (2), 0.01 μmol/l alone), 172. The PKA-IC50/PKC-IC50 with protein kinase C (PKC) (ratio of PKA-IC50 to PKC-IC50) was >1000 ∥mol/l. For the same compound, the pIC50 at protein kinase C (PKC) was 7.30; against protein kinase A (PKA), below 4.30.

For `CCCCCCCC/C=C\CCCCCCCC(=O)OC[C@@H](O)COP(=O)(O)O` [Monooleoyl lysophosphatidic acid, monooleoyl lysophosphatidic acid], the “Relative cell growth rate based” value in series [1] (setting [2]) turned out to be 200.

On to Polymyxin B, for which the PKA-IC50/PKC-IC50 in the series on protein kinase C (PKC) is above 384. For the same compound, the pIC50 on protein kinase C (PKC) is 5.59; against protein kinase A (PKA) it was below 3.00. Turning to `Oc1cc(O)c2c(c1)O[C@H](c1ccc(O)c(O)c1)[C@H](O)[C@H]2c1c(O)cc(O)c2c1O[C@H](c1ccc(O)c(O)c1)[C@H](O)C2` [Procyanidin B-2, epicatechin-(4β→8)-epicatechin], the “Relative cell growth rate based” value in series [1] (setting [3]) is reported as 260; in series [1] (setting [4]) it was 251.

Consider `Cc1c(C)c2c(c(C)c1O)CCC(C)(CCCC(C)CCCC(C)CCCC(C)C)O2` (racemic) [dl-α-Tocopherol], for which the “Relative cell growth rate based” value in series [1] (setting [3]) is listed as 150; in series [1] (Table 2 (2), 30 μmol/l alone), 199. As to `CCCCCCCC/C=C\CCCCCCCC(=O)OC[C@H](COP(=O)(O)O)OC(=O)CCCCCCC/C=C\CCCCCCCC` [Dioleoyl phosphatidic acid, dioleoyl phosphatidic acid], in series [1] (setting [4]), the “Relative cell growth rate based” value amounted to 255. With `CCCCCCCCCCCCCC(=O)OCC(COP(=O)(O)O)OC(=O)CCCCCCCCCCCCC` (stereo not drawn) [Dimyristoyl phosphatidic acid, dimyristoyl phosphatidic acid], in series [1] (setting [4]), the “Relative cell growth rate based” value is recorded as 361.

As for `CCCCCCCCCCCC(=O)OC[C@H](COP(=O)(O)O)OC(=O)CCCCCCCCCCC` [Dilauroyl phosphatidic acid, dilauroyl phosphatidic acid], the “Relative cell growth rate based” value in series [1] (setting [4]) amounted to 379.

(Values after patent US7015209B2, “Hair-growing agent” (Kyowa Hakko Kogyo Co., Ltd., priority 1999, dated 2006).)
